Source: EP2718307B1, “BETA-HAIRPIN PEPTIDOMIMETICS AS CXC4 ANTAGONISTS” (Polyphor AG, priority 2011, dated 2012)
Bridge positions count the residues as written; N and C are the ends. Square brackets hold non-standard residues; d marks the D form. Peptide text beside a SMILES is read from it. Lys(iPr) = CC(C)NCCCC[C@H](N)C(=O)O; Orn(iPr) = CC(C)NCCC[C@H](N)C(=O)O

Test system: HSC mobilization
Test: HSC mobilization in mouse (time-response and dose-response study, CFU-C assay)
Assay type: in vivo, Male C57BI/6 mice
Conditions: for time of maximum mobilization: from time-response study; for ED50: sigmoidal fit of doses 1.5, 5 and 15 mg/kg i.p., maximum constrained to 4000 CFU/mL, ED50 corresponds to 2000 CFU/mL
Protocol: For the compounds of Ex. 1 and Ex. 2 a HSC mobilization study was performed consisting of a time-response study to assess the time of maximum mobilization after dosing and a subsequent dose-response study.
Male C57BI/6 mice (Janvier, France; n = 5 for Ex. 1, n = 3 for Ex. 2) received bolus i.p. injections of Ex. 1 and Ex. 2, respectively, (5 mg/kg) dissolved in 10 µL of water per g mouse weight containing 0.9% NaCl. Blood was withdrawn from the cheek pouch into EDTA coated tubes for the time points 0, 0.5, 1, 2, 4, 6 and 8 hrs after administration. The colony forming unit in culture counts (CFU-C counts) were determined by performing a CFU-C assay as described below.
Male C57BI/6 mice (Janvier, France; n = 5 per dose group for Ex. 1, n = 3 per dose group for Ex. 2) received bolus i.p. injections of Ex. 1 and Ex. 2, respectively, at doses of 0.5, 1.5, 5 and 15 mg/kg (compound dissolved in 10 µL of water per g mouse weight containing 0.9% NaCl). Blood was collected as described above at the time of maximum mobilization for Ex. 1 (4 h) and Ex. 2 (2 h), respectively.
CFU-C counts were determined by culturing aliquots of lysed peripheral blood in standard semi-solid progenitor cell culture medium. In brief, a defined amount of blood was washed with PBS buffer (Gibco®) containing 0.5% bovine serum albumin, followed by red blood cell lysis in hypotonic NH4Cl buffer (Sigma) and a second wash step. The cell pellet was resuspended in DMEM (Gibco®) containing 10% FCS, suspended in 2 mL of commercially available, cytokine-replete methylcellulose medium for murine cells (Cell Systems, USA), and plated in duplicate into 35 mm cell culture dishes. CFU-C were scored after 7-8 days incubation under standard conditions (20% O2, saturated humidity, 5% CO2, 37 °C). Peripheral blood cellularity was analyzed using an automated blood count machine (Drew Scientific).
Considering the curve progressions of both compounds the dose-responses are constrained to a maximum response of 4000 CFU/mL. The ED50-values indicated in Table 9 are therefore corresponding to a response of 2000 CFU/mL.

[1] = time-response study, 5 mg/kg bolus i.p., 0.5 h after administration
[2] = time-response study, 5 mg/kg bolus i.p., 1 h after administration
[3] = time-response study, 5 mg/kg bolus i.p., 2 h after administration
[4] = time-response study, 5 mg/kg bolus i.p., 4 h after administration
[5] = time-response study, 5 mg/kg bolus i.p., 6 h after administration
[6] = time-response study, 5 mg/kg bolus i.p., 8 h after administration

SMILES	CFU/mL ± SD (dose-response study, 0.5 mg/kg bolus i.p., blood collected at 4 h) [CFU/mL]	CFU/mL ± SD (dose-response study, 1.5 mg/kg bolus i.p., blood collected at 4 h) [CFU/mL]	CFU/mL ± SD (dose-response study, 5 mg/kg bolus i.p., blood collected at 4 h) [CFU/mL]	CFU/mL ± SD (dose-response study, 15 mg/kg bolus i.p., blood collected at 4 h) [CFU/mL]	time of maximum mobilization (5 mg/kg bolus i.p.) [h]	ED50 [mg/kg]	CFU/mL ± SD [1] [CFU/mL]	CFU/mL ± SD [2] [CFU/mL]	CFU/mL ± SD [3] [CFU/mL]	CFU/mL ± SD [4] [CFU/mL]	CFU/mL ± SD [5] [CFU/mL]	CFU/mL ± SD [6] [CFU/mL]	CFU/mL ± SD (dose-response study, 1.5 mg/kg bolus i.p., blood collected at 2 h) [CFU/mL]	CFU/mL ± SD (dose-response study, 5 mg/kg bolus i.p., blood collected at 2 h) [CFU/mL]	CFU/mL ± SD (dose-response study, 15 mg/kg bolus i.p., blood collected at 2 h) [CFU/mL]
CC(C)NCCCC[C@@H]1NC(=O)[C@H](CCC(N)=O)NC(=O)[C@H](Cc2ccc(O)cc2)NC(=O)[C@@H]2CSSC[C@H](NC(=O)[C@H](Cc3ccc(O)cc3)NC(=O)[C@H](Cc3c[nH]cn3)NC(=O)[C@H](Cc3ccc(O)cc3)NC(=O)[C@@H]3CCCN3C(=O)[C@H]3CCCN3C1=O)C(=O)N[C@@H](CO)C(=O)N[C@@H](C)C(=O)N1CCC[C@@H]1C(=O)N[C@@H](CCCNC(C)C)C(=O)N[C@@H](CCCNC(=N)N)C(=O)N[C@@H](Cc1ccc(O)cc1)C(=O)N2 [Ex. 1, cyclo(-Tyr^1-His^2-Tyr^3-Cys^4-Ser^5-Ala^6-^DPro^7-Orn(iPr)^8-Arg^9-Tyr^10-Cys^11-Tyr^12-Gln^13-Lys(iPr)^14-^DPro^15-Pro^16-), disulfide bond between Cys^4 and Cys^11] (cyclo(YHYCSA[dP][Orn(iPr)]RYCYQ[Lys(iPr)][dP]P); disulfide 4-11)	974 ± 57	1672 ± 233	3325 ± 310	3289 ± 431	4	1.76	511 ± 85	2208 ± 262	2592 ± 450	3109 ± 537	1857 ± 281	588 ± 161			
COc1ccc(C[C@@H]2NC(=O)[C@H](Cc3c[nH]cn3)NC(=O)[C@H](Cc3ccc(O)cc3)NC(=O)[C@@H]3CCCN3C(=O)[C@H]3CCCN3C(=O)[C@H](CCCCNC(C)C)NC(=O)[C@H](CCC(N)=O)NC(=O)[C@H](Cc3ccc(O)cc3)NC(=O)[C@@H]3CSSC[C@H](NC2=O)C(=O)N[C@@H](CO)C(=O)N[C@@H](C)C(=O)N2CCC[C@@H]2C(=O)N[C@@H](CCCNC(C)C)C(=O)N[C@@H](CCCNC(=N)N)C(=O)N[C@@H](Cc2ccc(O)cc2)C(=O)N3)cc1 [Ex. 2, cyclo(-Tyr^1-His^2-Tyr(Me)^3-Cys^4-Ser^5-Ala^6-^DPro^7-Orn(iPr)^8-Arg^9-Tyr^10-Cys^11-Tyr^12-Gln^13-Lys(iPr)^14-^DPro^15-Pro^16-), disulfide bond between Cys^4 and Cys^11] (cyclo(YHY(Me)CSA[dP][Orn(iPr)]RYCYQ[Lys(iPr)][dP]P); disulfide 4-11)					2	2.38	839 ± 148	1020 ± 262	2894 ± 329	1929 ± 643	1164 ± 151	373 ± 96	1314 ± 463	2894 ± 329	3589 ± 576
